Counter-ions that a name gives are not always drawn.
Test: Compatibility study of C21 sodium salt with lipid-based ingredients and capsule shell components
Assay type: physicochemical
Protocol: Experiments were then performed to assess the chemical compatibility of C21 with selected pharmaceutically-acceptable lipid-based ingredients (some, but not all, of which were also studied in Example 3 above), as well as the main soft shell gelatin capsule components, under accelerated conditions.
The compatibility study was performed by storing at 40° C. and 75% RH for eight weeks in a climatic chamber (Weiss Technik), during which an analysis of impurities formed was performed after four (T4) and eight (T8) weeks.
An additional experiment was performed by storing for eight weeks at room temperature in the laboratory (with controlled temperature and humidity).
Testing of C21 sodium salt in the absence of excipients was performed as a reference.
In Table 6, the generic names and the sources of the various excipients are the same as presented above, e.g. in Table 5.
Samples A0 to A16 and B1 were prepared in 20 mL glass vials, with two preparations being prepared for each time point. Samples C1 to C16 and D1 were prepared in 20 mL glass vials, with one preparation for each time point.
Assay and impurity evaluations were made using the same Waters UPLC Acquity system and essentially the same chromatographic conditions as described in Example 3 above.
The impurity analysis is summarized in Table 7 below, in which C21 assay values (I) and impurity values (II) are presented as % recovery and represent the average value obtained for each mixture on the two sample preparations.

[1] = T4 (four weeks), 40° C. and 75% RH
[2] = T8 (eight weeks), 40° C. and 75% RH
[3] = T8 (eight weeks), Ambient temp.

For `CCCCOC(=O)NS(=O)(=O)c1sc(CC(C)C)cc1-c1ccc(Cn2ccnc2)cc1` [C21 sodium salt, N-butyloxycarbonyl-3-(4-imidazol-1-ylmethylphenyl)-5-iso-butylthiophene-2-sulfonamide], the “C21 assay values (I)” value (T0) was 98.2 % recovery, the “impurity values (II)” value (T0) was 0.24 % recovery and the “C21 assay values (I)” value [1] was 102.2 % recovery. For the same compound, the “impurity values (II)” value [1] was 0.23 % recovery, the “C21 assay values (I)” value [2] was 101.3 % recovery and the “impurity values (II)” value [2] was 0.25 % recovery. The “C21 assay values (I)” value [3] was 102.0 % recovery and the “impurity values (II)” value [3] was 0.24 % recovery.

Source: patent publication US20230149362A1, “NEW CAPSULE COMPOSITION FOR PERORAL ADMINISTRATION” (Vicore Pharma AB, priority 2020, published 2023)
